Assay results reported in patent US8685974B2 (Bayer CropScience AG, priority 2009, dated 2014).
Where a name gives a salt, the structure may show the parent alone. Read-outs that look alike come from different tables or passages of the source. Marks after values point to notes of the source that are not given here.

Columns and labels:
physchem = settings: pH 2.7
Alternaria solani = assay: Alternaria test (tomato) / protective; type: in vivo; settings: 500 ppm active compound, protective spray, evaluated 7 days after inoculation
Outline: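 Young tomato plants sprayed protectively with compound formulated in DMF with alkylaryl polyglycol ether emulsifier and diluted in water to the application rate. After inoculation, plants held at 96% rel. humidity and 20° C. Efficacy scored 7 days post-inoculation: 0% equals untreated control, 100% no infection.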

[1] = pH 2.7
Pyrenophora teres = assay: In vivo test on Pyrenophora teres (barley net blotch); settings: dose of 500 ppm; barley plants; grading 12 days after contamination
Experimental: In Vivo Test on Pyrenophora teres (Barley Net Blotch)
The active ingredients tested are prepared by homogenization in a mixture of acetone/Tween/DMSO, then diluted with water to obtain the desired active material concentration.
Barley plants (Plaisant variety), sown on a 50/50 peat soil-pozzolana substrate in starter cups and grown at 12° C., are treated at the 1-leaf stage (10 cm tall) by spraying with the active ingredient prepared as described above.
Plants, used as controls, are treated with an aqueous solution not containing the active material.
After 24 hours, the plants are contaminated by spraying them with an aqueous suspension of Pyrenophora teres spores (12,000 spores per ml). The spores are collected from a 12-day-old culture. The contaminated barley plants are incubated for 24 hours at about 20° C. and at 100% relative humidity, and then for 12 days at 80% relative humidity.
Grading is carried out 12 days after the contamination, in comparison with the control plants.

Fusarium graminearum = type: cell-based; settings: 50 μM; for % Inhibition of DON/AcDON at 50 μM: 7 days at 28° C.

Row | SMILES | log p (physchem) | further results
1 | CC(C)Nc1nccc(CC(=O)c2ccc(Cl)s2)n1 | 2.37 | 
2 | CN(C)C=CC(=O)c1cc(Br)c(Br)s1 [1-(4,5-Dibromo-2-thienyl)-3-(dimethylamino)prop-2-en-1-one] | 2.68 | 
3 | CN(C)C=CC(=O)c1cc(Br)cs1 [1-(4-Bromo-2-thienyl)-3-(dimethylamino)prop-2-en-1-one] | 1.94 | 
4 | CN(C)C=CC(=O)c1cc(Cl)cs1 [1-(4-Chloro-2-thienyl)-3-(dimethylamino)prop-2-en-1-one] | 1.86 | 
5 | CSc1nccc(CC(=O)c2ccc(Cl)s2)n1 [1-(5-Chloro-2-thienyl)-2-[2-(methylsulfanyl)pyrimidin-4-yl]ethanone] | 2.98 | 
6 | O=C(Cc1ccnc(Cl)c1)c1ccc(Cl)s1 [1-(5-chloro-2-thienyl)-2-(2-chloropyridin-4-yl)ethanone] | 2.94 | 
7 | O=C(Cc1ccncc1)c1ccc(Cl)s1 [1-(5-chloro-2-thienyl)-2-(pyridin-4-yl)ethanone] | 1.17 | 
8 | CN(C)C=C(C(=O)c1ccc(Cl)s1)c1ccnc(Cl)c1 [1-(5-chloro-2-thienyl)-3-(dimethylamino)-2-(2-chloropyridin-4-yl)prop-2-en-1-one] | 2.58 | 
9 | CN(C)C=C(C(=O)c1ccc(Cl)s1)c1ccncc1 [1-(5-chloro-2-thienyl)-3-(dimethylamino)-2-(pyridin-4-yl)prop-2-en-1-one] | 1.07 | 
10 | CCn1ccc(-c2cccs2)n1 [1-Ethyl-3-(2-thienyl)-1H-pyrazole] | 2.14 | 
11 | CCn1ccc(-c2cc(C)cs2)n1 [1-Ethyl-3-(4-methyl-2-thienyl)-1H-pyrazole] | 2.64 | 
12 | CCn1cc(I)c(-c2cccs2)n1 [1-Ethyl-4-iodo-3-(2-thienyl)-1H-pyrazole] | 3.13 | 
13 | CCn1cc(I)c(-c2cc(C)cs2)n1 [1-Ethyl-4-iodo-3-(4-methyl-2-thienyl)-1H-pyrazole] | 3.7 | 
14 | CCn1nccc1-c1cccs1 [1-Ethyl-5-(2-thienyl)-1H-pyrazole] | 2.18 | 
15 | CCn1nccc1-c1cc(C)cs1 [1-Ethyl-5-(4-methyl-2-thienyl)-1H-pyrazole] | 2.68 | 
16 | CC(C)n1ccc(-c2cccs2)n1 [1-Isopropyl-3-(2-thienyl)-1H-pyrazole] | 2.66 | 
17 | Cc1csc(-c2ccn(C(C)C)n2)c1 [1-Isopropyl-3-(4-methyl-2-thienyl)-1H-pyrazole] | 3.14 | 
18 | CC(C)n1nccc1-c1cccs1 [1-Isopropyl-5-(2-thienyl)-1H-pyrazole] | 2.69 | 
19 | Cc1csc(-c2ccnn2C(C)C)c1 [1-Isopropyl-5-(4-methyl-2-thienyl)-1H-pyrazole] | 3.18 | 
20 | CCCc1cc(-c2sccc2C)nn1C [1-Methyl-3-(3-methyl-2-thienyl)-5-propyl-1H-pyrazole] | 3.34 | 
21 | Cc1csc(-c2ccn(C)n2)c1 [1-Methyl-3-(4-methyl-2-thienyl)-1H-pyrazole] | 2.14 | 

Row | SMILES | log p (physchem) | further results
22 | CCCc1cc(-c2cccs2)n(C)n1 [1-Methyl-3-propyl-5-(2-thienyl)-1H-pyrazole] | 2.9 | 
23 | CCCc1cc(-c2sccc2C)n(C)n1 [1-Methyl-5-(3-methyl-2-thienyl)-3-propyl-1H-pyrazole] | 3.34 | 
24 | Cc1csc(-c2ccnn2C)c1 [1-Methyl-5-(4-methyl-2-thienyl)-1H-pyrazole] | 2.26 | 
25 | CCCc1cc(-c2cccs2)nn1C [1-Methyl-5-propyl-3-(2-thienyl)-1H-pyrazole] | 2.9 | 
26 | CCCn1ccc(-c2cccs2)n1 [1-Propyl-3-(2-thienyl)-1H-pyrazole] | 2.58 | 
27 | CCCn1nccc1-c1cccs1 [1-Propyl-5-(2-thienyl)-1H-pyrazole] | 2.64 | 
28 | CCC(C)n1ccc(-c2cccs2)n1 (centres unmarked) [1-sec-Butyl-3-(2-thienyl)-1H-pyrazole] | 3.1 | 
29 | CCC(C)n1cc(I)c(-c2cc(Cl)cs2)n1 (centres unmarked) [1-sec-Butyl-3-(4-chloro-2-thienyl)-4-iodo-1H-pyrazole] | 5.01 | 
30 | CCC(C)n1ccc(-c2cc(C)cs2)n1 (centres unmarked) [1-sec-Butyl-3-(4-methyl-2-thienyl)-1H-pyrazole] | 3.63 | 
31 | CCC(C)n1cc(I)c(-c2cccs2)n1 (centres unmarked) [1-sec-Butyl-4-iodo-3-(2-thienyl)-1H-pyrazole] | 4.12 | 
32 | CCC(C)n1cc(I)c(-c2cc(C)cs2)n1 (centres unmarked) [1-sec-Butyl-4-iodo-3-(4-methyl-2-thienyl)-1H-pyrazole] | 4.79 | 
33 | CCC(C)n1ncc(I)c1-c1cccs1 (centres unmarked) [1-sec-Butyl-4-iodo-5-(2-thienyl)-1H-pyrazole] | 4.12 | 
34 | CCC(C)n1nccc1-c1cccs1 (centres unmarked) [1-sec-Butyl-5-(2-thienyl)-1H-pyrazole] | 2.97 | 
35 | CCC(C)n1ncc(I)c1-c1cc(Cl)cs1 (centres unmarked) [1-sec-Butyl-5-(4-chloro-2-thienyl)-4-iodo-1H-pyrazole] | 4.72 | 
36 | CCC(C)n1nccc1-c1cc(C)cs1 (centres unmarked) [1-sec-Butyl-5-(4-methyl-2-thienyl)-1H-pyrazole] | 3.65 | 
37 | CC(=O)c1ccc(-c2n[nH]cc2-c2ccncc2)s1 [1-{5-[4-(pyridin-4-yl)-1H-pyrazol-3-yl]-2-thienyl}ethanone hydrochloride] | 0.62 | 
38 | O=C(Cc1ccnc(Cl)n1)c1ccc(Cl)s1 [2-(2-Chloropyrimidin-4-yl)-1-(5-chloro-2-thienyl)ethanone] | 2.6 | 
39 | CCC(C)n1cc(-c2ccnc(Br)c2)c(-c2ccc(Cl)s2)n1 (centres unmarked) [2-Bromo-4-[1-sec-butyl-3-(5-chloro-2-thienyl)-1H-pyrazol-4-yl]pyridine] | 5.03 | 
40 | CC(C)Cn1cc(-c2ccnc(Cl)c2)c(-c2ccc(Cl)s2)n1 [2-Chloro-4-[1-isobutyl-3-(5-chloro-2-thienyl)-1H-pyrazol-4-yl]pyridine] | 4.85 | 
41 | CC(C)Cn1ncc(-c2ccnc(Cl)c2)c1-c1ccc(Cl)s1 [2-Chloro-4-[1-isobutyl-5-(5-chloro-2-thienyl)-1H-pyrazol-4-yl]pyridine] | 4.62 | 
42 | CCC(C)n1cc(-c2ccnc(Cl)c2)c(-c2ccc(Cl)s2)n1 (centres unmarked) [2-Chloro-4-[1-sec-butyl-3-(5-chloro-2-thienyl)-1H-pyrazol-4-yl]pyridine] | 4.9 | 

Row | SMILES | log p (physchem) | further results
43 | Clc1cc(-c2c[nH]nc2-c2ccc(Cl)s2)ccn1 [2-Chloro-4-[3-(5-chloro-2-thienyl)-1H-pyrazol-4-yl]pyridine] | 2.75 | 
44 | CCC(C)n1cc(-c2ccnc(C#N)c2)c(-c2ccc(Cl)s2)n1 (centres unmarked) [2-Cyano-4-[1-sec-butyl-3-(5-chloro-2-thienyl)-1H-pyrazol-4-yl]pyridine] | 4.41 | 
45 | C#CCNc1cc(-c2cn(CC(C)C)nc2-c2ccc(Cl)s2)ccn1 [2-Propargylamino-4-[1-isobutyl-3-(5-chloro-2-thienyl)-1H-pyrazol-4-yl]pyridine] | 2.3 | 
46 | CC(C)n1ccc(-c2cc(Br)c(Br)s2)n1 [3-(4,5-Dibromo-2-thienyl)-1-isopropyl-1H-pyrazole] | 4.64 | 
47 | Brc1cc(-c2cc[nH]n2)sc1Br [3-(4,5-Dibromo-2-thienyl)-1H-pyrazole] | 2.74 | 
48 | CCn1ccc(-c2cc(Br)cs2)n1 [3-(4-Bromo-2-thienyl)-1-ethyl-1H-pyrazole] | 3.04 | 
49 | CC(C)n1ccc(-c2cc(Br)cs2)n1 [3-(4-Bromo-2-thienyl)-1-isopropyl-1H-pyrazole] | 3.61 | 
50 | Brc1csc(-c2cc[nH]n2)c1 [3-(4-Bromo-2-thienyl)-1H-pyrazole] | 1.99 | 
51 | CCn1cc(I)c(-c2cc(Cl)cs2)n1 [3-(4-Chloro-2-thienyl)-1-ethyl-4-iodo-1H-pyrazole] | 4.02 | 
52 | Clc1csc(-c2cc[nH]n2)c1 [3-(4-Chloro-2-thienyl)-1H-pyrazole] | 1.91 | 
53 | CCCn1ccc(-c2cc(C)cs2)n1 [3-(4-Methyl-2-thienyl)-1-propyl-1H-pyrazole] | 3.07 | 
54 | Cc1csc(-c2cc[nH]n2)c1 [3-(4-Methyl-2-thienyl)-1H-pyrazole] | 1.72 | 
55 | Clc1csc(-c2n[nH]cc2I)c1 [3-(4-chloro-2-thienyl)-4-iodo-1H-pyrazole] | 2.68 | 
56 | N#Cc1[nH]nc(-c2ccc(Cl)s2)c1-c1ccncc1 [3-(5-Chloro-2-thienyl)-4-(pyridin-4-yl)-1H-pyrazole-5-carbonitrile] | 1.53 | 
57 | CN(C)C=CC(=O)c1cccs1 [3-(Dimethylamino)-1-(2-thienyl)prop-2-en-1-one] | 1.33 | 
58 | N#CCCn1cc(-c2ccncc2)c(-c2ccc(F)s2)n1 [Example 340] |  | efficacy (Alternaria solani): 94%; log p [1]: 1.12^[b]; protection (Pyrenophora teres): 70%; % Inhibition of fungal growth at 50 μM (Fusarium graminearum): 91%; % Inhibition of DON/AcDON at 50 μM (Fusarium graminearum): 98%
59 | N#CCCn1cc(-c2ccncc2)c(-c2ccc(Br)s2)n1 [Example 350] |  | efficacy (Alternaria solani): 80%; log p [1]: 1.42^[b]; protection (Pyrenophora teres): 90%; % Inhibition of fungal growth at 50 μM (Fusarium graminearum): 92%; % Inhibition of DON/AcDON at 50 μM (Fusarium graminearum): 99%
60 | FC(F)Cn1cc(-c2ccncc2)c(-c2ccc(Cl)s2)n1 [Example 363] |  | efficacy (Alternaria solani): 100%; log p [1]: 1.61^[b]; protection (Pyrenophora teres): 90%; % Inhibition of fungal growth at 50 μM (Fusarium graminearum): 99%; % Inhibition of DON/AcDON at 50 μM (Fusarium graminearum): 99%
61 | CCOCCn1cc(-c2ccncc2)c(-c2ccc(Cl)s2)n1 [Example 364] |  | efficacy (Alternaria solani): 100%; log p [1]: 1.69^[b]; protection (Pyrenophora teres): 70%; % Inhibition of fungal growth at 50 μM (Fusarium graminearum): 100%; % Inhibition of DON/AcDON at 50 μM (Fusarium graminearum): 99%
